According to PubChem BioAssay AID330 (DTP/NCI, 2004):
Where “and” joins values, the source holds several entries; their conditions need not be identical. Identical values can stand only once. Toxic doses and inconclusive results are not listed. How the source made its calls: active means survival T/C of 150% or more; inactive means T/C below 125% in these data.

System: P388 leukemia ip, CD2F1 mice, survival T/C
Experiment: NCI In Vivo Anticancer Drug Screen. Data for tumor model P388 Leukemia (intraperitoneal) in CD2F1 (CDF1) mice
Conditions: endpoint: median survival time, higher = longer survival
Procedure, shortened: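 Mice carrying the transplanted tumor received test compound or vehicle. Survival was recorded in each group, and the value is the treated-group measurement divided by that of the vehicle-treated control group.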

[1] = dose: 50.0 mg/kg/injection, schedule: Q01DX005 (ip), vehicle: Klucel (hydroxypropylcellulose) (HPC)
[2] = dose: 100.0 mg/kg/injection, schedule: Q01DX005 (ip), vehicle: Klucel (hydroxypropylcellulose) (HPC)
[3] = dose: 200.0 mg/kg/injection, schedule: Q01DX005 (ip), vehicle: Klucel (hydroxypropylcellulose) (HPC)
[4] = dose: 50.0 mg/kg/injection, schedule: Q01DX001 (ip), vehicle: saline with Tween-80
[5] = dose: 50.0 mg/kg/injection, schedule: Q01DX005 (ip), vehicle: saline with Tween-80
[6] = dose: 100.0 mg/kg/injection, schedule: Q01DX009 (ip), vehicle: Klucel (hydroxypropylcellulose) (HPC)
[7] = dose: 100.0 mg/kg/injection, schedule: Q01DX001 (ip), vehicle: saline with Tween-80
[8] = dose: 50.0 mg/kg/injection, schedule: Q01DX009 (ip), vehicle: saline with Tween-80
[9] = dose: 100.0 mg/kg/injection, schedule: Q01DX009 (ip), vehicle: saline with Tween-80
[10] = dose: 50.0 mg/kg/injection, schedule: Q01DX009 (ip), vehicle: Klucel (hydroxypropylcellulose) (HPC)
[11] = dose: 200.0 mg/kg/injection, schedule: Q01DX009 (ip), vehicle: Klucel (hydroxypropylcellulose) (HPC)

Measured: T/C

CC(=O)OC(CCCCCCCCCCCCC(C)C)CC(=O)O (configuration not stated)
inactive: dose: 8.13 mg/kg/injection, schedule: Q01DX005 (ip), vehicle: Klucel + Tween-80 102 % of control | dose: 16.25 mg/kg/injection, schedule: Q01DX005 (ip), vehicle: Klucel + Tween-80 98 % of control | dose: 32.5 mg/kg/injection, schedule: Q01DX005 (ip), vehicle: Klucel + Tween-80 90 % of control | dose: 65.0 mg/kg/injection, schedule: Q01DX005 (ip), vehicle: Klucel + Tween-80 90 % of control

CC/C=C\C/C=C\C/C=C\CCCCCCCC(=O)O
inactive: dose: 40.0 mg/kg/injection, schedule: Q01DX009 (ip), vehicle: Klucel (hydroxypropylcellulose) (HPC) 92 % of control | dose: 80.0 mg/kg/injection, schedule: Q01DX009 (ip), vehicle: Klucel (hydroxypropylcellulose) (HPC) 100 % of control | dose: 160.0 mg/kg/injection, schedule: Q01DX009 (ip), vehicle: Klucel (hydroxypropylcellulose) (HPC) 98 % of control | dose: 320.0 mg/kg/injection, schedule: Q01DX009 (ip), vehicle: Klucel (hydroxypropylcellulose) (HPC) 95 % of control

Nc1c(-c2nc3ccc(C4=NCCN4)cc3[nH]2)[nH]c2cc(-c3nc4ccc(C5=NCCN5)cc4[nH]3)ccc12
inactive: [1] 90 % of control | [2] 90 % of control

CN1CCC(C(C)(C)C)CC1
inactive: dose: 25.0 mg/kg/injection, schedule: Q01DX005 (ip), vehicle: Klucel (hydroxypropylcellulose) (HPC) 89 % of control | [1] 94 % of control | [2] 93 % of control | [3] 98 % of control

CC(=O)Oc1ccc(OC(C)=O)c2cc3c(cc12)C(=O)C(C)=C(C)C3=O
inactive: [1] 89 % of control | [2] 97 % of control | [3] 111 % of control

O=C(c1ccc(-c2ccccc2)cc1)C1C(c2ccccc2)N1C1CCCCC1 (configuration not stated)
inactive: dose: 25.0 mg/kg/injection, schedule: Q01DX009 (ip), vehicle: other 88 % of control | dose: 100.0 mg/kg/injection, schedule: Q01DX009 (ip), vehicle: other 91 % of control

O=C(NC(Cc1ccccc1)C(=O)CBr)OCc1ccccc1 (configuration not stated)
inactive: dose: 12.5 mg/kg/injection, schedule: Q01DX001 (ip), vehicle: saline with Tween-80 100 % of control | dose: 25.0 mg/kg/injection, schedule: Q01DX001 (ip), vehicle: saline with Tween-80 104 % of control | [4] 109 % of control

COc1c2occc2c(OC)c2c(C)c(C(=O)OCCN3CCOCC3)oc12
inactive: dose: 60.0 mg/kg/injection, schedule: Q01DX005 (ip), vehicle: Klucel (hydroxypropylcellulose) (HPC) 96 % of control | dose: 120.0 mg/kg/injection, schedule: Q01DX005 (ip), vehicle: Klucel (hydroxypropylcellulose) (HPC) 91 % of control | dose: 240.0 mg/kg/injection, schedule: Q01DX005 (ip), vehicle: Klucel (hydroxypropylcellulose) (HPC) 91 % of control

CCN(CC)CCCCCCCNc1cc(OC)cc2c(C)ccnc12
inactive: dose: 6.25 mg/kg/injection, schedule: Q01DX009 (ip), vehicle: saline 90 % of control | dose: 12.5 mg/kg/injection, schedule: Q01DX009 (ip), vehicle: saline 93 % of control | dose: 25.0 mg/kg/injection, schedule: Q01DX009 (ip), vehicle: saline 99 % of control

CC(C)(C)c1ccc2c(O)c(C(C)(C)C)cc(-c3ccccc3)c2c1
inactive: dose: 50.0 mg/kg/injection, schedule: Q01DX009 (ip), vehicle: saline 107 % of control | dose: 100.0 mg/kg/injection, schedule: Q01DX009 (ip), vehicle: saline 110 % of control | dose: 200.0 mg/kg/injection, schedule: Q01DX009 (ip), vehicle: saline 106 % of control

Cc1cc(=O)n(-c2ccc([N+](=O)[O-])cc2Cl)c(C)c1C(=O)O
inactive: [5] 103 % of control | dose: 100.0 mg/kg/injection, schedule: Q01DX005 (ip), vehicle: saline with Tween-80 96 % of control | dose: 200.0 mg/kg/injection, schedule: Q01DX005 (ip), vehicle: saline with Tween-80 106 % of control

COc1ccc2c(NCCCCCCCCNc3c4ccc(Cl)cc4nc4cc(OC)ccc34)c3ccc(Cl)cc3nc2c1
inactive: dose: 0.63 mg/kg/injection, schedule: Q01DX009 (ip), vehicle: other 117 % of control | dose: 1.25 mg/kg/injection, schedule: Q01DX009 (ip), vehicle: other 100 % of control | dose: 2.5 mg/kg/injection, schedule: Q01DX009 (ip), vehicle: other 96 % of control | dose: 5.0 mg/kg/injection, schedule: Q01DX009 (ip), vehicle: other 105 % of control | dose: 10.0 mg/kg/injection, schedule: Q01DX009 (ip), vehicle: other 100 % of control | dose: 20.0 mg/kg/injection, schedule: Q01DX009 (ip), vehicle: other 88 % of control

C#CC1(O)CC(c2ccccc2)N(C)C(c2ccccc2)C1 (configuration not stated)
inactive: dose: 12.5 mg/kg/injection, schedule: Q01DX005 (ip), vehicle: saline with Tween-80 93 % of control | dose: 25.0 mg/kg/injection, schedule: Q01DX005 (ip), vehicle: saline with Tween-80 98 % of control | [5] 98 % of control and 87 % of control

Cc1cc(N(CCOS(C)(=O)=O)CCOS(C)(=O)=O)ccc1C=Nc1ccc(-c2csc(-c3ccccc3)n2)c(Cl)c1
inactive: dose: 6.25 mg/kg/injection, schedule: Q01DX009 (ip), vehicle: Klucel (hydroxypropylcellulose) (HPC) 110 % of control | dose: 12.5 mg/kg/injection, schedule: Q01DX009 (ip), vehicle: Klucel (hydroxypropylcellulose) (HPC) 122 % of control | [6] 98 % of control and 87 % of control

O=C1OCc2c1[nH]c(=O)[nH]c2=O
inactive: dose: 6.25 mg/kg/injection, schedule: Q01DX009 (ip), vehicle: distilled water + Tween-80 105 % of control | dose: 12.5 mg/kg/injection, schedule: Q01DX009 (ip), vehicle: distilled water + Tween-80 96 % of control | dose: 25.0 mg/kg/injection, schedule: Q01DX009 (ip), vehicle: distilled water + Tween-80 110 % of control | dose: 50.0 mg/kg/injection, schedule: Q01DX009 (ip), vehicle: distilled water + Tween-80 100 % of control | dose: 100.0 mg/kg/injection, schedule: Q01DX009 (ip), vehicle: distilled water + Tween-80 105 % of control and 109 % of control | dose: 200.0 mg/kg/injection, schedule: Q01DX009 (ip), vehicle: distilled water + Tween-80 98 % of control | dose: 400.0 mg/kg/injection, schedule: Q01DX009 (ip), vehicle: distilled water + Tween-80 90 % of control

OCc1nc(-c2ccccc2)sc1-c1cnc2ccccc2n1
inactive: dose: 100.0 mg/kg/injection, schedule: Q04DX002 (ip), vehicle: Klucel (hydroxypropylcellulose) (HPC) 104 % of control | dose: 200.0 mg/kg/injection, schedule: Q04DX002 (ip), vehicle: Klucel (hydroxypropylcellulose) (HPC) 99 % of control | dose: 400.0 mg/kg/injection, schedule: Q04DX002 (ip), vehicle: Klucel (hydroxypropylcellulose) (HPC) 101 % of control

O=C1C(Cl)=C(Cl)C(=O)C(/C=C/N2CCOCC2)=C1Cl
inactive: [4] 102 % of control | [7] 98 % of control

COCNC(=O)N=C1N(COC)COCN1COC
inactive: [7] 109 % of control | dose: 200.0 mg/kg/injection, schedule: Q01DX001 (ip), vehicle: saline with Tween-80 106 % of control | dose: 400.0 mg/kg/injection, schedule: Q01DX001 (ip), vehicle: saline with Tween-80 100 % of control

N#Cc1c(N)nc2c(c1N)CC(CO)O2 (configuration not stated)
inactive: [8] 96 % of control | [9] 93 % of control

CCCC(NC(=O)C(C)N)C(=O)O (configuration not stated)
inactive: [10] 107 % of control | [6] 95 % of control | [11] 102 % of control | dose: 400.0 mg/kg/injection, schedule: Q01DX009 (ip), vehicle: Klucel (hydroxypropylcellulose) (HPC) 102 % of control

CCOC(=O)N1CCc2cc(OC)c(O)cc2C1CC1=CC(=O)C(OC)=CC1=O (configuration not stated)
inactive: dose: 100.0 mg/kg/injection, schedule: Q04DX002 (ip), vehicle: saline with Tween-80 102 % of control | dose: 200.0 mg/kg/injection, schedule: Q04DX002 (ip), vehicle: saline with Tween-80 100 % of control | dose: 400.0 mg/kg/injection, schedule: Q04DX002 (ip), vehicle: saline with Tween-80 97 % of control

Oc1ccc(N=Cc2ccccn2)cc1
inactive: dose: 25.0 mg/kg/injection, schedule: Q01DX009 (ip), vehicle: saline with Tween-80 94 % of control | [8] 105 % of control and 88 % of control | [9] 107 % of control and 88 % of control | dose: 200.0 mg/kg/injection, schedule: Q01DX009 (ip), vehicle: saline with Tween-80 103 % of control

Cc1ccc2c(c1)sc1nnc(Cl)n12
inactive: [10] 100 % of control | [6] 94 % of control | [11] 88 % of control
